Where two headings read alike, the source gives them in different places. Marks after values point to notes of the source that are not given here. Peptide text beside a SMILES is read from it.

Consider nine molecules from publication PMC4901077, “Development and Identification of a Novel Anti-HIV-1 Peptide Derived by Modification of the N-Terminal Domain of HIV-1 Integrase” (Frontiers in Microbiology, 2016).

The target of one test is T1, HIV-1 IN multimerization (Human immunodeficiency virus type 1 group M subtype B, UniProt P04585).
T1 construct: Full-length IN and LEDGF proteins were expressed in E. coli BL21(DE3); made in house; host or cells: E. coli BL21(DE3)
Nature of the test: HTRF-based IN multimerization assay. In kind it is binding. Conditions: for EC50: concentration stimulating the Multimerization Increase by 50%, HTRF, read-out: IN-multim MI50; for IN multimerization signal, % of control at 100 µM: measured in the presence of 100 μM concentration, read-out: IN-multim, percentage of control. The procedure: (§1) Full-length IN and LEDGF proteins were expressed in E. coli BL21(DE3) and were purified as described (Kessl et al., [2012]; Esposito et al., [2015]; Tintori et al., [2015]). His- and FLAG-tagged INs, were mixed in 25 mM Tris (pH 7.4) buffer containing 150 mM NaCl, 2 mM MgCl2, 0.1% Nonidet P-40, 1 mg/ml BSA. Test compounds were then added to the mixture. A mixture of anti-His6-XL665 and anti-FLAG-EuCryptate antibodies were then added to the reaction and, after an incubation, the plate are read and the HTRF signal is calculated from the 665/620 nm ratio.
(§2) In this assay two IN preparation are used: a first His-tagged IN preparation, and a second Flag-tagged IN preparation. In both preparations the purified IN is at equilibrium as a dimer; such dimers go through monomers exchange. […] The formation of this “hybrid” dimer can be monitored in the HTRF-based assay as described (Esposito et al., [2015]; Tintori et al., [2015]). When the assay is performed in the presence of a compound inhibiting dimerization, the HTRF signal decreases as the concentration of compound increases, whereas in the presence of a compound promoting IN multimerization (association of dimers) the HTRF signal increases as the concentration of the compound increases.
In general terms: In TR-FRET formats the signal depends on donor and acceptor labels being close together.

For test [1], the target named is T2, HIV-1 IN-IN subunit exchange (Human immunodeficiency virus type 1 group M subtype B, UniProt P04585).
T2 construct: Full-length IN and LEDGF proteins were expressed in E. coli BL21(DE3); made in house; host or cells: E. coli BL21(DE3)
Nature of the test: HTRF-based IN subunit exchange assay (IN-IN dimerization). Particulars: for IC50: concentration required to inhibit the HIV-1 IN-IN subunit exchange by 50%, HTRF, His- and FLAG-tagged IN; for IN-IN subunit exchange, percentage of control: measured in the presence of 100 μM concentration. In kind it is binding. The procedure: as §1, §2

In test [2] the target is T3, Full-length recombinant HIV-1 integrase (Human immunodeficiency virus type 1 group M subtype B, UniProt P04585).
T3 construct: Full-length recombinant HIV-1 integrase protein was then loaded onto this oligo substrate; purchased Xpressbio Life Science Products (Express Biotech International)
Nature of the test: HIV-1 IN activity inhibition assay (Xpressbio HIV-1 IN Assay kit, 3'-processing/strand transfer). In kind it is biochemical. The procedure: Express Biotech International Company performed this assay using its HIV-1 IN Assay kit (Xpressbio Life Science Products, USA. www.xpressbio.com). Briefly, Streptavidin coated 96-well plates were coated with a double-stranded HIV-1 LTR U5 donor substrate (DS) oligonucleotide containing an end-labeled biotin. Full-length recombinant HIV-1 integrase protein was then loaded onto this oligo substrate. Compounds were added to the reaction and then a different double-stranded target substrate (TS) oligo containing 3′-end modifications was added to the plate. The sequence of DS DNA and TS DNA substrates used in this assay were
respectively (Hazuda et al., [1994] and Engelman et al., [1993]). The HIV-1 IN cleaves the terminal two bases from the exposed 3′-end of the HIV-1 LTR DS and then catalyzes a strand-transfer reaction to integrate the DS into the TS. The products of the reaction were detected colorimetrically using an HRP-labeled antibody directed against the TS 3′-end modification. Percent inhibition in the IN assay was calculated and IC50 values were determined.

[3] abbreviates: Table 2, colorimetric HRP read-out, read-out: IN inhibition IC50.
The mark [4] stands for this setting: Table 1, colorimetric HRP read-out, ±SD, read-out: IN inhibition IC50(μM) ±SD.

Turning to Ac-VVAAEIVAH-NH2 [Peptide 24], at HIV-1 IN multimerization, the EC50 was > 100 µM and the IN multimerization signal, % of control at 100 µM was 100%. Further, in test [1], the IC50 was 32 ± 3 µM. Further, the IC50 in test [2] (setting [3]) is 20.8 ± 1.3 µM.

For Ac-VVAKEIVAH-NH2 [Peptide 18], at HIV-1 IN multimerization, the EC50 is > 100 µM and the IN multimerization signal, % of control at 100 µM is 100%. Moreover, in test [1], the IC50 was > 100 µM and the “IN-IN subunit exchange, percentage of control” value was >100 (100%)^b. Moreover, the IC50 in test [2] (setting [4]) is 4.5 ± 0.9 µM.

Consider `CCCC(C(=O)O)c1c(C)nc2ccc(Cl)cc2c1-c1ccccc1` (stereo not drawn) [LEDGIN-6, reference compound], for which, at HIV-1 IN multimerization, the EC50 is 10 ± 1 µM. In test [1], the IC50 was > 100 µM and the “IN-IN subunit exchange, percentage of control” value is given as >100 (100%).

Turning to Ac-DFNLPPVVAK-NH2 [Peptide 9], the IC50 in test [2] (setting [4]) came out at 213 ± 12 µM.

Take Ac-VVAKEIFAH-NH2 [Peptide 21]: in test [2] (setting [3]), the IC50 stood at 504 ± 22 µM.

Turning to Ac-GIDKAQDEHE-NH2 [Peptide 2], the IC50 in test [2] (setting [4]) was determined as 162 ± 9 µM.

As to Ac-VVAKAIVAH-NH2 [Peptide 25], the EC50 at HIV-1 IN multimerization came out at 4.8 ± 0.4 µM. Besides, in test [1], the IC50 is > 100 µM and the “IN-IN subunit exchange, percentage of control” value is recorded as >100 (100%). In addition, the IC50 in test [2] (setting [3]) amounted to 13 ± 1 µM.

Consider Ac-VFAKEIVAH-NH2 [Peptide 20], for which, in test [2] (setting [3]), the IC50 was 375 ± 19 µM.

Regarding `CC[C@H](C)[C@H](NC(=O)[C@H](CCC(=O)O)NC(=O)[C@H](CCCCN)NC(C)=O)C(=O)N[C@H](C(=O)N[C@@H](C)C(=O)N[C@@H](CO)C(=O)N[C@@H](CS)C(=O)N[C@@H](CC(=O)O)C(=O)N[C@@H](CCCCN)C(=O)N[C@@H](CS)C(N)=O)C(C)C` [Peptide 12] (Ac-KEIVASCDKC-NH2), in test [2] (setting [4]), the IC50 turned out to be 477 ± 23 µM.

A word on the IC50: it is the midpoint of a concentration-inhibition curve.
